From patent US20140336182A1, “Aurora Kinase Modulators and Method of Use” (Amgen Inc., priority 2013, published 2014)

These compounds were tested on HeLa cells (assay: HeLa cell 24 hr ploidy assay (DNA content)). Settings: Homo sapiens, HeLa, 4N ploidy, average, read-out: 24h_4NPloidy EC50_IP (uM Avg).
Assay type: cell-based
Procedure, shortened: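 HeLa cells (1×10^4/well, MEM+10% FBS) cultured 24 h, treated with serially diluted compounds (0.25% DMSO final), then fixed, permeabilized and stained with Hoechst 33342 (0.5 ug/ml). Imaging quantified % 4N and >4N cells; EC50 IP and EC50 transit derived from dose curves.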

EC50	Compound
0.097 µM	Cc1csc(-c2nnc(Nc3ccc(Oc4ccnc5cc(C#N)ccc45)cc3)c3ccccc23)n1 [compound 86, 4-((4-((4-(4-methyl-1,3-thiazol-2-yl)-1-phthalazinyl)amino)phenyl)oxy)-7-quinolinecarbonitrile]
0.03 µM	COc1cnc2c(Oc3ccc(Nc4nnc(-c5ccc(C)s5)c5ccccc45)cc3)ccnc2c1 [compound 138]
0.063 µM	COc1cc2nccc(Oc3ccc(Nc4nnc(-c5ccccc5)c5ccccc45)cc3)c2cn1 [compound 96, N-(4-((7-(methyloxy)-1,6-naphthyridin-4-yl)oxy)phenyl)-4-phenyl-1-phthalazinamine]
0.001 µM	COc1cc2ncnc(Oc3ccc(Nc4nnc(-c5cc(C)cs5)c5ccccc45)cc3)c2cc1OC [compound 153]
0.052 µM	COc1ccc(-c2nnc(Nc3ccc(Oc4ccnc5cc(OC)cnc45)cc3)c3ccccc23)cc1 [Example 37, N-(4-(7-methoxy-1,5-naphthyridin-4-yloxy)phenyl)-4-(4-methoxyphenyl)phthalazin-1-amine]
0.083 µM	CCc1cc(-c2ccccc2)nnc1Nc1ccc(Oc2ccnc3cc(OC)cnc23)cc1 [compound 108]
0.061 µM	COc1cnc2c(Oc3ccc(Nc4nnc(-c5ccc(Cl)c(C#N)c5)c5ccccc45)cc3)ccnc2c1 [compound 154]
0.03 µM	COc1cc2nccc(Oc3ccc(Nc4nnc(-c5ccc(C)cn5)c5ccccc45)cc3)c2cn1 [compound 103]
0.025 µM	COc1cc2nccc(Oc3ccc(Nc4nnc(N5CCCCC5)c5ccccc45)cc3)c2cc1OC [compound 75]
0.09 µM	CN1CCN(c2nnc(Nc3ccc(Oc4ccnc5cc(C#N)ccc45)cc3)c3ccccc23)CC1 [compound 94]
0.179 µM	COc1cnc2c(Oc3ccc(Nc4nnc(-c5cc(C)ccn5)c5ccccc45)cc3)ccnc2c1 [compound 116, N-(4-((7-(methyloxy)-1,5-naphthyridin-4-yl)oxy)phenyl)-4-(4-methyl-2-pyridinyl)-1-phthalazinamine]
> 1.2 µM	COc1cnc2c(Oc3ccc(Nc4nnc(-c5ccncc5OC)c5ccccc45)cc3)ccnc2c1 [compound 130]
0.036 µM	COc1cnc2c(Oc3ccc(Nc4nnc(N5CCCCCC5)c5ccccc45)cc3)ccnc2c1 [Example 32, 4-(azepan-1-yl)-N-(4-(7-methoxy-1,5-naphthyridin-4-yloxy)phenyl)phthalazin-1-amine]

Same assay, conditions: Homo sapiens, HeLa, HeLa cells, 4N ploidy, average, read-out: 24h_4NPloidy EC50_IP (uM Avg)

EC50	Compound
0.001 µM	c1cnc2c(Sc3ccc(Nc4nnc(-c5ccc6c(c5)CCO6)c5ccccc45)cc3)ccnc2c1 [compound 445]
0.007 µM	COc1cnc2c(Sc3ccc(Nc4nnc(N5CCN6C[C@H](F)C[C@H]6C5)c5ccccc45)cc3)ccnc2c1 [compound 600]
0.044 µM	Fc1cc(F)c2c(Sc3ccc(Nc4nnc(-c5ccc(Cl)cc5)c5ccccc45)cc3)ccnc2c1 [compound 342]
0.007 µM	Cc1csc(-c2nnc(Nc3ccc(Sc4ccnc5ccn(C(C)C)c45)cc3)c3ccccc23)c1 [compound 472]
0.018 µM	Cc1cc2nccc(Sc3ccc(Nc4nnc(-c5ccc(Cl)cc5)c5ccccc45)cc3)c2s1 [compound 559]
0.027 µM	COCCOc1ccc2nccc(Sc3ccc(Nc4nnc(-c5ccc(Cl)cc5)c5ccccc45)cc3)c2c1 [compound 434]
0.016 µM	Cc1csc(-c2nnc(Nc3ccc(Sc4ccnc5ccncc45)cc3)c3ccccc23)c1 [compound 428]
> 1.2 µM	COc1cc2nncc(Oc3ccc(Nc4nnc(-c5ccccc5)c5ccccc45)cc3)c2cc1OC [compound 254]
0.016 µM	COc1cnc2c(Sc3ccc(Nc4nnc(N5CCCCC5)c5ccccc45)cc3)ccnc2c1 [compound 346]
≥ 1.2 µM	Clc1ccc(-c2nnc(Nc3ccc(Cn4cnc5ccccc54)cc3)c3ccccc23)cc1 [compound 341]
0.009 µM	Cc1ccc(-c2nnc(Nc3ccc(Sc4ccnc5cc(C#N)oc45)cc3)c3ccccc23)cc1N [compound 490]
0.026 µM	COc1cnc2c(Sc3ccc(Nc4nnc(N5CC(C)CC(C)C5)c5ccccc45)cc3)ccnc2c1 (centres unmarked) [compound 556]
0.044 µM	COc1cnc2c(Oc3ccc(Nc4nnc(-c5ccc(OC)c(C)c5)c5ccccc45)cc3)ccnc2c1 [compound 213]
0.007 µM	COc1cnc2c(Oc3ccc(Nc4nnc(-c5ccc(C)c(Cl)c5)c5ccccc45)cc3)ccnc2c1 [compound 224]
0.049 µM	COc1cc(OC)c2c(Sc3ccc(Nc4nnc(-c5ccc(Cl)cc5)c5ccccc45)cc3)ccnc2c1 [compound 436]
0.021 µM	COc1cnc2c(Oc3ccc(Nc4nnc(-c5ccc6c(ccn6C)c5)c5ccccc45)cc3)ccnc2c1 [compound 204, 4-(1-methyl-1H-indol-5-yl)-N-(4-((7-(methyloxy)-1,5-naphthyridin-4-yl)oxy)phenyl)-1-phthalazinamine]
0.007 µM	COc1cc2nccc(Sc3ccc(Nc4nnc(-c5ccc(Cl)cc5)c5ccccc45)cc3)c2cn1 [compound 354]
0.019 µM	N#Cc1ccc2c(Oc3ccc(Nc4nnc(-c5ccc(Cl)cc5)c5ccccc45)cc3)ccnc2c1 [compound 242]
0.056 µM	Cn1cc(-c2ccc3nccc(Oc4ccc(Nc5nnc(-c6ccccc6)c6ccccc56)cc4)c3c2)cn1 [Example 45, N-(4-(6-(1-Methyl-1H-pyrazol-4-yl)quinolin-4-yloxy)phenyl)-4-phenylphthalazin-1-amine]
0.025 µM	CC(=O)Nc1ccc2nccc(Oc3ccc(Nc4nnc(-c5ccccc5)c5ccccc45)cc3)c2c1 [Example 43, N-(4-(4-(4-Phenylphthalazin-1-ylamino)phenoxy)quinolin-6-yl)acetamide]
0.011 µM	COc1cnc2c(Oc3ccc(Nc4nnc(-c5ccc(Cl)cc5)c5ccccc45)cc3F)ccnc2c1 [compound 284]
≥ 1.2 µM	COc1cc2nncc(Oc3ccc(Nc4nnc(-c5ccc(Cl)cc5)c5ccccc45)cc3)c2cc1OC [compound 282]
0.002 µM	COc1ccc2nccc(Oc3ccc(Nc4nnc(-c5ccc6c(c5)OCO6)c5ccccc45)cc3)c2n1 [compound 551]

EC50	Compound
0.016 µM	COc1cc(F)cc2nccc(Sc3ccc(Nc4nnc(-c5ccc(Cl)cc5)c5ccccc45)cc3)c12 [compound 438]
0.012 µM	COc1cnc2c(Oc3ccc(Nc4nnc(-c5ccc(C)c(N)c5)c5cc(F)c(F)cc45)cc3)ccnc2c1 [compound 545]
0.005 µM	Cn1cc(-c2ccc3c(Oc4ccc(Nc5nnc(-c6ccccc6)c6ccccc56)cc4)ccnc3c2)cn1 [compound 338, N-(4-(7-(1-methyl-1H-pyrazol-4-yl)quinolin-4-yloxy)phenyl)-4-phenylphthalazin-1-amine]
0.292 µM	COc1cc(OC)c2c(Oc3ccc(Nc4nnc(-c5ccccc5)c5ccccc45)cn3)ncnc2c1 [compound 606]
0.036 µM	O=c1ccc2nccc(Sc3ccc(Nc4nnc(-c5ccc(Cl)cn5)c5ccccc45)cc3)c2[nH]1 [Example 405, 8-(4-(4-(5-Chloropyridin-2-yl)phthalazin-1-ylamino)phenylthio)-1,5-naphthyridin-2(1H)-one]
0.342 µM	CCCc1cc(-c2ccccc2)nnc1Nc1ccc(Oc2ccnc3cc(C#N)ccc23)cc1 [compound 196]
> 1.2 µM	C[Si](C)(C)c1cc2nccc(Sc3ccc(Nc4nnc(Cl)c5ccccc45)cc3)c2o1 [compound 484]
≥ 1.2 µM	N#Cc1ccc2c(Oc3ccc(Nc4nnc(-c5ccccc5)c5ccccc45)cn3)ccnc2c1 [compound 174]
0.397 µM	Clc1ccc(-c2nnc(Nc3ccc(Oc4ncnc5[nH]ccc45)cc3)c3ccccc23)cc1 [compound 290]
0.025 µM	c1ccc(-c2nnc(Nc3ccc(Sc4ccnc5c4CCCN5)cc3)c3ccccc23)cc1 [compound 577]
0.007 µM	COc1cnc2c(Oc3ccc(Nc4nnc(-c5ccc6c(c5)CCO6)c5ccccc45)cc3)ccnc2c1 [compound 168, 4-(2,3-dihydro-1-benzofuran-5-yl)-N-(4-((7-(methyloxy)-1,5-naphthyridin-4-yl)oxy)phenyl)-1-phthalazinamine]
0.008 µM	COCCOc1cc(-c2nnc(Nc3ccc(Sc4ccnc5cc(OC)cnc45)cc3)c3ccccc23)ccc1Cl [compound 450]
< 0.0023 µM	COc1cc(F)cc2nccc(Oc3ccc(Nc4nnc(-c5cc(C)cs5)c5ccccc45)cc3)c12 [compound 442]
0.018 µM	COCCOc1nnc(Nc2ccc(Sc3ccnc4cc(OC)cnc34)cc2)c2ccccc12 [compound 515]
0.01 µM	Clc1ccc(-c2nnc(Nc3ccc(Sc4ccnc5cc[nH]c45)cc3)c3ccccc23)cc1 [compound 463]
0.023 µM	N#Cc1ccc2c(Sc3ccc(Nc4nnc(-c5ccccc5)c5ccccc45)cc3)ccnc2c1 [compound 208]
> 1.2 µM	N#Cc1cnc2c(Oc3ccc(Nc4nnc(-c5ccccc5)c5ccccc45)cc3)ccnc2c1 [Example 44, 8-(4-(4-phenylphthalazin-1-ylamino)phenoxy)-1,5-naphthyridine-3-carbonitrile]
0.195 µM	COc1cnc2c(Oc3ccc(Nc4nnc(-c5ccccc5)c5ccccc45)cn3)ccnc2c1 [Example 41, N-(6-(7-methoxy-1,5-naphthyridin-4-yloxy)pyridin-3-yl)-4-phenylphthalazin-1-amine]
0.045 µM	COc1cnc2c(Oc3ccc(Nc4nnc(C#CC(C)(C)C)c5ccccc45)cc3)ccnc2c1 [Example 31, 4-(3,3-dimethylbut-1-ynyl)-N-(4-(7-methoxy-1,5-naphthyridin-4-yloxy)phenyl)phthalazin-1-amine]
0.004 µM	COc1cc2ncnc(Sc3ccc(Nc4nnc(-c5ccc(Cl)cc5)c5ccccc45)cc3)c2cc1OC [compound 418]
0.314 µM	COc1cnc2c(Oc3ccc(Nc4nnc(-c5ncco5)c5ccccc45)cc3)ccnc2c1 [compound 200]
0.016 µM	c1ccc2c(-c3ccc4c(c3)OCO4)nnc(Nc3ccc(Sc4ccnc5ccoc45)cc3)c2c1 [compound 467]
0.019 µM	Nc1ccc2nccc(Sc3ccc(Nc4nnc(-c5ccccc5)c5ccccc45)cc3)c2c1 [Example 399, N-(4-(6-Aminoquinolin-4-ylthio)phenyl)-4-phenylphthalazin-1-amine]
